Data as given in the NIST ThermoML archive (doi:10.1021/je400134d).
± gives the expanded uncertainty stated by the source.

Conditions: 101.33 kPa, Liquid; for speed of sound: Pulse-echo method; for mass density: Vibrating tube method

SMILES	speed of sound (293.15 K)	mass density (293.15 K)	speed of sound (298.15 K)	mass density (298.15 K)	speed of sound (303.15 K)	mass density (303.15 K)
CNc1ccccc1 [N-methylaniline]	1582.7 ± 2.2 m/s	986.444 ± 0.82 kg/m3	1564.7 ± 2.2 m/s	982.487 ± 0.82 kg/m3	1545.8 ± 2.2 m/s	978.541 ± 0.81 kg/m3
C1CCCCC1 [cyclohexane]	1278 ± 1 m/s	778.706 ± 0.15 kg/m3	1253.6 ± 0.9 m/s	774.018 ± 0.16 kg/m3	1229.9 ± 0.9 m/s	769.297 ± 0.16 kg/m3
CCCCCCC [heptane]	1150.9 ± 0.9 m/s	683.845 ± 0.18 kg/m3	1129.6 ± 0.9 m/s	679.603 ± 0.18 kg/m3	1111.2 ± 0.9 m/s	675.532 ± 0.19 kg/m3
Cc1ccccc1 [toluene]	1325.8 ± 0.9 m/s	866.98 ± 0.1 kg/m3	1304.4 ± 0.8 m/s	862.295 ± 0.11 kg/m3	1283.7 ± 0.8 m/s	857.725 ± 0.11 kg/m3
